≈ marks a conversion by molar mass, not a printed value.
Columns and labels:
Format in all cases: cell-based
S. aureus ATCC 13709 = assay: MIC, antibacterial potency, S. aureus; settings: S. aureus (SA); in µg/mL
S. pneumoniae ATCC 51916 = assay: MIC, S. pneumoniae; settings: S. pneumoniae (Spn52); in µg/mL
E. coli 8 ATCC 25922 = assay: MIC, E. coli 8 (wt); settings: E. coli 8 (EC8)

Row | SMILES | MIC, SA (S. aureus ATCC 13709) | MIC Spn52 (S. pneumoniae ATCC 51916) | MIC EC8 (E. coli 8 ATCC 25922) [µg/mL]
1 | CCc1[nH]c2nc(Oc3ccc4c(N5CC(N)C5)ncnc4c3)nc(Oc3cccc(C#N)c3)c2c1Br [700,944] | 8 | 8 | > 64
2 | CCc1[nH]c2nc(Oc3cncc(C#N)c3)nc(Oc3cncc(OC)c3)c2c1Br [700,945] | <=0.5 | <=0.5 | > 64
3 | CCc1[nH]c2nc(Oc3cccc(C#N)c3)nc(C(C)N)c2c1Cl (stereo not drawn) [700,946] | >64 | >64 | > 64
4 | CC(=O)c1nc(Oc2cccc(C#N)c2)nc2[nH]c(C(C)O)c(Cl)c12 (stereo not drawn) [700,947] | >64 | 64 | > 64
5 | CCc1[nH]c2nc(Oc3ccc4nccnc4c3)nc(N3CC(O)C3)c2c1Cl [700,948] | <=0.5 | 4 | > 16
6 | CCc1[nH]c2nc(Oc3ccc4sc(C)nc4c3)nc(Oc3cccc(C#N)c3)c2c1Br [700,949] | <=0.5 | 4 | > 64
7 | CCc1[nH]c2nc(Oc3cccc(C#N)c3)nc(C(C)N3CCC(N)C3)c2c1Cl (stereo not drawn) [700,950] | >64 | >64 | > 64
8 | CCc1[nH]c2nc(Oc3cccc(C#N)c3)nc(C(C)N3CC4C(N)C4C3)c2c1Cl (stereo not drawn) [700,951] | >16 | >16 | > 16
9 | CCc1[nH]c2nc(Oc3cccc(C#N)c3)nc(C(C)N3CC4C(C3)C4(N)C(N)=O)c2c1Cl (stereo not drawn) [700,952] | 64 | 64 | > 64
10 | CCc1[nH]c2nc(Oc3cccc(C#N)c3)nc(C(C)NCCO)c2c1Cl (stereo not drawn) [700,953] | >32 | >32 | > 32
11 | CCc1[nH]c2nc(Oc3cccc(C#N)c3)nc(C(C)(NO)NO)c2c1Cl [700,954] | >32 | >32 | > 32
12 | CCc1[nH]c2nc(Sc3ccc4c(N5CC[C@@H](N)C5)nc(C(=O)O)nc4c3)nc(N3CC[C@@H](N)C3)c2c1Cl [700,955] | 8 | >64 | 16 (≈ 28.9 µM)
13 | CCc1[nH]c2nc(Sc3ccc4c(N5CC(CN)C5)nc(C)nc4c3)nc(N3CC4C(C3)C4(N)C(N)=O)c2c1Cl (stereo not drawn) [700,956] | 8 | 32 | > 64
14 | CCc1[nH]c2nc(Sc3cnc4nccnc4c3)nc(N3CC4CC(O)C4C3)c2c1Cl (stereo not drawn) [700,957] | <=0.5 | 1 | > 32
15 | CCc1[nH]c2nc(Sc3cnc4cccnc4c3)nc(N3C[C@@H]4NCCO[C@H]4C3)c2c1Cl [700,958] | 2 | 4 | > 32
16 | CCc1[nH]c2nc(Sc3cnc4cccnc4c3)nc(N3C[C@@H]4NCCO[C@@H]4C3)c2c1Cl [700,959] | 2 | 2 | > 64
17 | CCc1[nH]c2nc(Sc3ccc4c(N5CC(N)C5)ncnc4c3)nc(N3C[C@@H]4[C@H](C3)[C@@]4(N)C(N)=O)c2c1Cl [700,960] | 2 | 2 | > 32
18 | CCc1[nH]c2nc(Oc3ccc4nccnc4c3)nc(C(C)=O)c2c1Cl [700,961] | 1 | 1 | > 64

Reference: US10047105B2, “Gyrase inhibitors” (Merck Sharp & Dohme Corp., priority 2009, dated 2018)
